ChEMBL document CHEMBL4270538, “Targeting prohibitin with small molecules to promote melanogenesis and apoptosis in melanoma cells” (Eur J Med Chem, 2018)
Calls of active or inactive are those of the source. The calls are words filed in the database; no cut-off is given here.

How the values were obtained:
[1] = biological target: Prohibitin-2 (Homo sapiens) (UniProt Q99623); assay: Induction of PHB2-mediated melanogenesis in human HBL cells assessed as pigmentation at 10 uM after 10 days relative to control; assay type: cell-based
Chain of Prohibitin-2 (Homo sapiens) (Q99623 whole entry): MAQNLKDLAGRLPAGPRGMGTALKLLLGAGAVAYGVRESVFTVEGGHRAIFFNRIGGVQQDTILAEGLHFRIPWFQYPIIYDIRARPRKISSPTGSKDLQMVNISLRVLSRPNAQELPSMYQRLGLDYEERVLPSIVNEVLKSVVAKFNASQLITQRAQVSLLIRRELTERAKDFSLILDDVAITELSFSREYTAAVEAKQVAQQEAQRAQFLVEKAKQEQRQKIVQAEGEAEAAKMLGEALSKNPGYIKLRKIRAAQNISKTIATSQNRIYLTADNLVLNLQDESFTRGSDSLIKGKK

[2] = biological target: Prohibitin-2 (Homo sapiens) (UniProt Q99623); assay: Induction of PHB2-mediated melanogenesis in human HBL cells assessed as pigmentation at 1 uM after 10 days relative to control; assay type: cell-based
Homo sapiens [3] = species on record: Homo sapiens; assay: Induction of apoptosis in human MM162 cells at 1 to 10 uM after 48 hrs by Annexin V-PE/7-AAD staining based flow cytometry; assay type: functional, cell-based
HBL = assay: Induction of apoptosis in human HBL cells at 1 to 10 uM after 48 hrs by Annexin V-PE/7-AAD staining based flow cytometry; assay type: functional, cell-based
Homo sapiens [4] = species on record: Homo sapiens; assay: Induction of apoptosis in human MM043 cells at 1 to 10 uM after 48 hrs by Annexin V-PE/7-AAD staining based flow cytometry; assay type: functional, cell-based

fold change (FC) [1]	fold change (FC) [2]	Compound	Activity (Homo sapiens [3])	Activity (HBL)	Activity (Homo sapiens [4])
0.78	0.84	CNc1nc(Oc2c(F)c(F)c(F)c(F)c2F)nc(N(C)Cc2cccc(F)c2)n1	–	–	–
0.87	0.84	CNc1nc(Oc2c(F)c(F)c(F)c(F)c2F)nc(N2CCc3ccccc3C2)n1	–	–	–
0.74	0.95	CCC(Nc1nc(N[C@H](CC)CO)nc(Oc2c(F)c(F)c(F)c(F)c2F)n1)c1cccc(F)c1 (some centres undefined)	–	–	–
0.71	0.94	C[C@@H](c1ccccc1)N(C)c1nc(NCCN(C)C)nc(Oc2c(F)c(F)c(F)c(F)c2F)n1	–	–	–

The next lines start with the compound.

Compound	fold change (FC) [1]	fold change (FC) [2]	Activity (Homo sapiens [3])	Activity (HBL)	Activity (Homo sapiens [4])
CN(C)CCCNc1nc(Oc2c(F)c(F)c(F)c(F)c2F)nc(N2CCCc3ccccc3C2)n1	1.57	0.96	–	–	–
FC1(F)N=C(c2ccc(Cl)cc2)SC1(F)c1ccc(Cl)cc1 (centres undefined)	1.37	1.51	–	–	–
Fc1cccc(CNc2nc(NCCCc3ccccc3)nc(Oc3c(F)c(F)c(F)c(F)c3F)n2)c1	1.07	1.07	–	–	–
CC[C@H](CO)Nc1nc(Oc2c(F)c(F)c(F)c(F)c2F)nc(N(C)Cc2cccc(F)c2)n1	0.81	0.77	–	–	–
CN(C)C1CCN(c2nc(Oc3c(F)c(F)c(F)c(F)c3F)nc(N3CCCc4ccccc4C3)n2)CC1	1.51	0.83	Active	Active	Active
Fc1cccc(CNc2nc(Oc3c(F)c(F)c(F)c(F)c3F)nc(N3CCCC3)n2)c1	1.08	0.99	–	–	–
C[C@@H](Nc1nc(NCCN(C)C)nc(Oc2c(F)c(F)c(F)c(F)c2F)n1)c1ccccc1	0.61	0.78	–	–	–
Fc1cccc(CNc2nc(NCc3ccccc3)nc(Oc3c(F)c(F)c(F)c(F)c3F)n2)c1	1.1	0.89	–	–	–
CC(C)CCNc1nc(NCc2cccc(F)c2)nc(Oc2c(F)c(F)c(F)c(F)c2F)n1	0.89	0.7	–	–	–
